# Source: patent publication US20030171361A1, “Pyrrolopyrimidinone derivatives, process of preparation and use” (priority 2002, published 2003)
# Assays:
# [1] = molecular target: rabbit platelet PDE V (Oryctolagus cuniculus, UniProt G1SX67); experiment: inhibition of cGMP PDE V activity (PDE SPA assay kit, [3H]-cGMP); assay type: biochemical; details: in vitro, inhibitors of cGMP PDE V; rabbit platelet enzyme, 30° C., 30 min
# Description: The rabbit platelet PDE V was prepared using the method described by Hidaka et al.(Biochim. Biophys. Acta., 429: 485-497, 1976) with minor modification. The platelet-rich plasma (PRP) was prepared by centrifugation of freshly obtained heparinized whole blood at 360 g. Platelets were isolated from the PRP by centrifugation at 1,200 g. Platelet homogenates were prepared in the homogenization buffer (50 mM Tris-HCl buffer containing 1 mM MgCl2, pH 7.4) by sonication for 30 s per 1 mL. The homogenized solutions were then centrifuged at 40,000×g for 2 h at 4° C. The supernatant was loaded on the DEAE-cellulose column (20 mL bed volume, Sigma) pre-equilibrated with equilibration buffer (50 mM Tris-acetate containing 3.75 mM 2-mercaptoethanol, pH 6.0).The column was then washed with 60 mL of equilibration buffer. The PDE isozymes were eluted using a continuous gradient of 0 to 600 mM sodium acetate in the equilibration buffer (60 mL total volume). The 1.0 mL fractions were collected. A flow rate of 60 mL/h was used throughout the ion-exchange chromatography procedure. PDE activities on cAMP and cGMP were characterized as described below. The characterized fractions were pooled and stored at −80 ° C. until the inhibition studies
# The cyclic nucleotide PDE V activity was determined using PDE SPA assay kit (Amersham Pharmacia biotech, UK).Each reaction mixture (100 μL total volume) consisted of the column elute containing PDE V (10 μL), [^3H]-cGMP (5 μCi/mL), bovine serum albumin (0.5 mg/mL), and MgCl2 (5 mM) in Tris-HCl buffer (15 mM, pH 7.5).The reactions were initiated by the addition of PDE V and the samples were incubated at 30° C. for 30 min, after which the reaction was stopped by the addition of 50 μL of SPA beads. The reaction tube was then settled for 20 min and was counted on the scintillation counter (Tri-carb 1500, Packard, USA). For the inhibition study of PDE V activity, the test compounds were dissolved in dimethyl sulfoxide (DMSO) and was diluted with distilled water. The final concentration of DMSO was less than 0.2% (v/v).All the inhibition experiments were conducted tinder the conditions where the level of cGMP hydrolysis (lid not exceed 15%, and the product formation increased linearly with time and the amount of enzyme.
# The following Table illustrates the in vitro activities for a range of the compounds of the invention as inhibitors of cGMP PDE V.
Compound,IC50 [1] [nM],melting point [°C]
"CCCc1cn(C)c2c(=O)[nH]c(-c3cc(S(=O)(=O)N4CCN(CCCF)CC4)ccc3OCC)nc12 [Example 14, 52-(2-ethoxy-5-(4-(3-fluoropropyl)piperazinylpiperazin-1-ylsulfonyl)phenyl)-15-methyl-37-n-propyl-1,63,5-dihydro-7H4-pyrrolo[4,33,2-d]pyrimidin-74-one]",1.36,217.5 to 218
"CCCc1cn(C)c2c(=O)[nH]c(-c3cc(S(=O)(=O)N4CCN(C)CC4)ccc3OCC)nc12 [Example 1, 52-(2-ethoxy-5-(4-methylpiperazinylpiperazin-1-ylsulfonyl)phenyl)-15-methyl-37-n-propyl-1,63,5-dihydro-7H4H-pyrrolo[4,33,2-d]pyrimidin-74-one]",2.9,220.5 to 221
"CCCc1cn(C)c2c(=O)[nH]c(-c3cc(S(=O)(=O)N4CCN(CCO)CC4)ccc3OCC)nc12 [Example 51, 52-(2-ethoxy-5-(4-(2-hydroxyethyl)piperazinylpiperazin-1-ylsulfonyl)phenyl)-15-methyl-37-n-propyl-1,63,5-dihydro-7H4H-pyrrolo[4,33,2-d]pyrimidin-74-one]",2.06,
CCCOc1ccc(S(=O)(=O)N2CCN(CCO)CC2)cc1-c1nc2c(CCCF)cn(CC)c2c(=O)[nH]1 [Example 30],0.18,162 to 163
"CCCOc1ccc(S(=O)(=O)N2CCN(C)CC2)cc1-c1nc2c(CCC)cn(C)c2c(=O)[nH]1 [Example 3, 52-(5-(4-methylpiperazinylpiperazin-1-ylsulfonyl)-2-n-propoxyphenyl)-15-methyl-37-n-propyl-1,63,5-dihydro-7H4H-pyrrolo[4,33,2-d]pyrimidin-74-one]",0.59,183 to 183.5
"CCCOc1ccc(S(=O)(=O)N2CCN(CCCF)CC2)cc1-c1nc2c(CCC)cn(C)c2c(=O)[nH]1 [Example 37, 52-(5-(4-(3-fluoropropyl)piperazinylpiperazin-1-ylsulfonyl)-2-n-propoxyphenyl)-15-methyl-37-n-propyl-1,63,5-dihydro-7H4H-pyrrolo[4,33,2-d]pyrimidin-74-one]",0.64,

# Results, then the compound that gave them:
IC50 [1] [nM],melting point [°C],Compound
0.27,,"CCCOc1ccc(S(=O)(=O)N2CCC(CCC(=O)O)CC2)cc1-c1nc2c(CCC)cn(C)c2c(=O)[nH]1 [Example 124, 52-(5-(4-(2-hydroxycarbonylethyl)piperidinylpiperidin-1-ylsulfonyl)-2-n-propoxyphenyl)-15-methyl-37-n-propyl-1,63,5-dihydro-7H4H-pyrrolo[4,33,2-d]pyrimidin-74-one]"
0.62,194 to 194.5,"CCOc1ccc(S(=O)(=O)N2CCN(CCCF)CC2)cc1-c1nc2c(CCCF)cn(CC)c2c(=O)[nH]1 [Example 26, 52-(2-ethoxy-5-(4-(3-fluoropropyl)piperazinylpiperazin-1-ylsulfonyl)phenyl)-15-ethyl-37(3-fluoropropyl)-1,63,5-dihydro-7H4H-pyrrolo-[4,33,2-d]pyrimidin-74-one]"
0.71,129 to 130.5,"CCCc1cn(C)c2c(=O)[nH]c(-c3cc(S(=O)(=O)N4CCC(CCC(=O)O)CC4)ccc3OCC)nc12 [Example 123, 52-(2-ethoxy-5-(4-(2-hydroxycarbonylethyl)piperidinylpiperidin-1-ylsulfonyl)phenyl)-15-methyl-37-n-propyl-1,63,5-dihydro-7H4H-pyrrolo[4,33,2-d]pyrimidin-74-one]"
2.23,182 to 182.5,"CCOc1ccc(S(=O)(=O)N2CCN(CCCF)CC2)cc1-c1nc2c(CC)cn(CC)c2c(=O)[nH]1 [Example 18, 52-(2-ethoxy-5-(4-(3-fluoropropyl)piperazinylpiperazin-1-ylsulfonyl)phenyl)-15-ethyl-37-ethyl-1,63,5-dihydro-7H4H-pyrrolo[4,33,2-d]pyrimidin-74-one]"
0.49,,"CCCOc1ccc(S(=O)(=O)N2CCN(CCO)CC2)cc1-c1nc2c(CCC)cn(C)c2c(=O)[nH]1 [Example 53, 52-(5-(4-(2-hydroxyethyl)piperazinylpiperazin-1-ylsulfonyl)-2-n-propoxyphenyl)-15-methyl-37-n-propyl-1,63,5-dihydro-7H4H-pyrrolo[4,33,2-d]pyrimidin-74-one]"
0.33,,CCCOc1ccc(S(=O)(=O)N2CCN(CCO)CC2)cc1-c1nc2c(CCC)cn(CC)c2c(=O)[nH]1 [Example 31]
